# According to PubChem BioAssay AID1259407 (Chemical Carcinogenesis Research Information System (CCRIS), 2018):
# The source made the active and inactive calls. No rule for the calls is given here.
# Tested on: CCRIS mutagenicity, Ames/micronucleus/aberration tests
# Assay: CCRIS mutagenicity studies
# [1] = Test System: AMES SALMONELLA TYPHIMURIUM, Strain/Indicator: TA98, Metabolic Activation: NONE, Method: STANDARD PLATE
# [2] = Test System: AMES SALMONELLA TYPHIMURIUM, Strain/Indicator: TA100, Metabolic Activation: NONE, Method: STANDARD PLATE
# [3] = Test System: AMES SALMONELLA TYPHIMURIUM, Strain/Indicator: TA1535, Metabolic Activation: NONE, Method: STANDARD PLATE
# [4] = Test System: AMES SALMONELLA TYPHIMURIUM, Strain/Indicator: TA1537, Metabolic Activation: NONE, Method: STANDARD PLATE
# [5] = Test System: AMES SALMONELLA TYPHIMURIUM, Strain/Indicator: TA1538, Metabolic Activation: NONE, Method: STANDARD PLATE
# [6] = Test System: AMES SALMONELLA TYPHIMURIUM, Strain/Indicator: TA98, Metabolic Activation: RAT, LIVER, S-9, AROCLOR 1254, Method: STANDARD PLATE
# [7] = Test System: AMES SALMONELLA TYPHIMURIUM, Strain/Indicator: TA100, Metabolic Activation: RAT, LIVER, S-9, AROCLOR 1254, Method: STANDARD PLATE
# [8] = Test System: AMES SALMONELLA TYPHIMURIUM, Strain/Indicator: TA1535, Metabolic Activation: RAT, LIVER, S-9, AROCLOR 1254, Method: STANDARD PLATE
# [9] = Test System: AMES SALMONELLA TYPHIMURIUM, Strain/Indicator: TA1537, Metabolic Activation: RAT, LIVER, S-9, AROCLOR 1254, Method: STANDARD PLATE
# [10] = Test System: AMES SALMONELLA TYPHIMURIUM, Strain/Indicator: TA1538, Metabolic Activation: RAT, LIVER, S-9, AROCLOR 1254, Method: STANDARD PLATE
Structure (SMILES),mutagenic call [1],mutagenic call [2],mutagenic call [3],mutagenic call [4],mutagenic call [5],mutagenic call [6],mutagenic call [7],mutagenic call [8],mutagenic call [9],mutagenic call [10],other results
CCN(CCCl)CCCNc1c2ccccc2nc2c1ccc1cccnc12,active; positive,active; positive,inactive; negative,active; positive,active; positive,,,,,,"mutagenic call (Test System: AMES SALMONELLA TYPHIMURIUM, Strain/Indicator: TA1536, Metabolic Activation: NONE, Method: STANDARD PLATE): active; positive"
ClC(Cl)(Cl)c1nc(-c2ccc3c(c2)OCO3)nc(C(Cl)(Cl)Cl)n1,,,,,,,,,,,"mutagenic call (End Point: In vitro chromosomal aberrations, Test System: Chinese hamster lung (CHL/IU) cells, Metabolic Activation: Rat, Liver, S-9, Phenobarbital and 5,6-benzoflavone): active; positive (structural changes and ploidy). ploidy response weak and not dose rela; mutagenic call (Test System: Ames Salmonella typhimurium, Strain/Indicator: TA98, Metabolic Activation: None, Method: Preincubation): inactive; negative; mutagenic call (Test System: Ames Salmonella typhimurium, Strain/Indicator: TA98, Metabolic Activation: Rat, Liver, S-9, Phenobarbital and 5,6-benzoflavone, Method: Preincubation): inactive; negative; mutagenic call (Test System: Ames Salmonella typhimurium, Strain/Indicator: TA100, Metabolic Activation: None, Method: Preincubation): active; positive; mutagenic call (Test System: Ames Salmonella typhimurium, Strain/Indicator: TA100, Metabolic Activation: Rat, Liver, S-9, Phenobarbital and 5,6-benzoflavone, Method: Preincubation): active; positive; mutagenic call (Test System: Ames Salmonella typhimurium, Strain/Indicator: TA1535, Metabolic Activation: None, Method: Preincubation): inactive; negative; mutagenic call (Test System: Ames Salmonella typhimurium, Strain/Indicator: TA1535, Metabolic Activation: Rat, Liver, S-9, Phenobarbital and 5,6-benzoflavone, Method: Preincubation): active; positive; mutagenic call (Test System: Ames Salmonella typhimurium, Strain/Indicator: TA1537, Metabolic Activation: None, Method: Preincubation): inactive; negative; mutagenic call (Test System: Ames Salmonella typhimurium, Strain/Indicator: TA1537, Metabolic Activation: Rat, Liver, S-9, Phenobarbital and 5,6-benzoflavone, Method: Preincubation): inactive; negative; mutagenic call (Test System: E. coli, Strain/Indicator: WP2uvrA/pKM101, Metabolic Activation: None, Method: Preincubation): inactive; negative; mutagenic call (Test System: E. coli, Strain/Indicator: WP2uvrA/pKM101, Metabolic Activation: Rat, Liver, S-9, Phenobarbital and 5,6-benzoflavone, Method: Preincubation): inactive; negative"
CN1CCN(C2=Nc3ccccc3Oc3ccc(Cl)cc32)CC1,inactive; negative,inactive; negative,inactive; negative,inactive; negative,,inactive; negative,inactive; negative,inactive; negative,inactive; negative,,
CC(=O)N1CCC[C@H]1C(=O)N(CC(=O)O)N=O,inactive; negative,active; positive,active; positive,inactive; negative,inactive; negative,inactive; negative,active; positive,active; positive,inactive; negative,inactive; negative,"mutagenic call (Test System: AMES SALMONELLA TYPHIMURIUM, Strain/Indicator: TA100, Metabolic Activation: HOST MEDIATED, Method: STANDARD PLATE): active; positive; mutagenic call (Test System: AMES SALMONELLA TYPHIMURIUM, Strain/Indicator: TA102, Metabolic Activation: NONE, Method: STANDARD PLATE): active; positive; mutagenic call (Test System: AMES SALMONELLA TYPHIMURIUM, Strain/Indicator: TA102, Metabolic Activation: RAT, LIVER, S-9, AROCLOR 1254, Method: STANDARD PLATE): active; positive; mutagenic call (Test System: CHO/HGPRT, Strain/Indicator: CHO-K1-BH4, Metabolic Activation: NONE): active; positive"
CC1(C(=O)NCc2ccccc2)CO1 (stereo not given),,active; positive,,,,,,,,,"mutagenic call (Test System: AMES SALMONELLA TYPHIMURIUM, Strain/Indicator: TA100, Metabolic Activation: MOUSE, LIVER, S-9, AROCLOR 1254, Method: STANDARD PLATE): active; positive"
O=[N+]([O-])c1ccc2cccc3c2c1C=C3,active; positive,,,,,,,,,,
CCOc1cc(N=Nc2ccc(N(CCO)CCO)cc2)ccc1N=Nc1c(S(=O)(=O)O)cc2ccc(N)cc2c1O,inactive; negative,inactive; negative,,,,active; positive,inactive; negative,,,active; positive,
C=CC(=O)OCCCCCC,inactive; negative,inactive; negative,inactive; negative,inactive; negative,inactive; negative,inactive; negative,inactive; negative,inactive; negative,inactive; negative,inactive; negative,"mutagenic call (Test System: AMES SALMONELLA TYPHIMURIUM, Strain/Indicator: TA98, Metabolic Activation: RAT, LIVER, S-9, SODIUM PHENOBARBITAL, Method: STANDARD PLATE): inactive; negative; mutagenic call (Test System: AMES SALMONELLA TYPHIMURIUM, Strain/Indicator: TA100, Metabolic Activation: NONE, Method: PREINCUBATION): inactive; negative; mutagenic call (Test System: AMES SALMONELLA TYPHIMURIUM, Strain/Indicator: TA100, Metabolic Activation: RAT, LIVER, S-9, AROCLOR 1254, Method: PREINCUBATION): inactive; negative; mutagenic call (Test System: AMES SALMONELLA TYPHIMURIUM, Strain/Indicator: TA100, Metabolic Activation: RAT, LIVER, S-9, SODIUM PHENOBARBITAL, Method: STANDARD PLATE): inactive; negative; mutagenic call (Test System: AMES SALMONELLA TYPHIMURIUM, Strain/Indicator: TA1535, Metabolic Activation: RAT, LIVER, S-9, SODIUM PHENOBARBITAL, Method: STANDARD PLATE): inactive; negative; mutagenic call (Test System: AMES SALMONELLA TYPHIMURIUM, Strain/Indicator: TA1537, Metabolic Activation: RAT, LIVER, S-9, SODIUM PHENOBARBITAL, Method: STANDARD PLATE): inactive; negative; mutagenic call (Test System: AMES SALMONELLA TYPHIMURIUM, Strain/Indicator: TA1538, Metabolic Activation: RAT, LIVER, S-9, SODIUM PHENOBARBITAL, Method: STANDARD PLATE): inactive; negative"
O=C(Nc1ccccc1)c1csc([N+](=O)[O-])c1,active; positive,active; positive,,,,,,,,,"mutagenic call (Test System: AMES SALMONELLA TYPHIMURIUM, Strain/Indicator: TA98(1,8-DNP6), Metabolic Activation: NONE, Method: STANDARD PLATE): active; positive; mutagenic call (Test System: AMES SALMONELLA TYPHIMURIUM, Strain/Indicator: TA98(NR), Metabolic Activation: NONE, Method: STANDARD PLATE): inactive; negative; mutagenic call (Test System: AMES SALMONELLA TYPHIMURIUM, Strain/Indicator: YG1021, Metabolic Activation: NONE, Method: STANDARD PLATE): active; positive; mutagenic call (Test System: AMES SALMONELLA TYPHIMURIUM, Strain/Indicator: YG1024, Metabolic Activation: NONE, Method: STANDARD PLATE): active; positive"
